{"source": "patent US9809640B2", "about": "“ApoE peptide dimers and uses thereof” (priority 2010, dated 2017)", "key": {"[1]": {"tested_on": "MB231 cells", "test": "Apoptosis after 24 hours of COG445", "format": "cell-based", "conditions": "1-1000 nM"}, "[2]": {"tested_on": "PP2A", "test": "PP2A activity in 32D:BCR/Abl chronic myelogenous leukemia cells (PP2A immunoprecipitation assay)", "format": "cell-based", "conditions": "1 μM, 32D:BCR/Abl cells", "description": "FIGS. 4A-4B. The BMOE-linked dimer peptide COG449 activates PP2A in CML cells. FIG. 4A: 32D-BCR/Abl chronic myelogenous leukemia cells were treated with COG449 (1 μM), COG445 (1 μM) (disulfide-linked COG112 dimer) or no treatment, and the PP2A activity was measured. FIG. 4B: 32D:BCR/Abl cell cultures were treated with no compound, 1 μM COG449, or 5 μM FTY720 for 30 minutes followed by lysis in an NP40 lysis buffer. PP2A was immunoprecipitated and assayed with the PP2A Immunoprecipitation assay kit (Upstate) according to the manufacturer's directions.\nTo further evaluate the effect of COG449, we measured the ability of the stable dimerized COG449 compound to activate PP2A in 32D:p210^BCR/Abl chronic myelogenous leukemia cells. […] 32D:p210^BCR/Abl chronic myelogenous leukemia cells were treated with no compound, 1 μM COG449, or 5 μM FTY720. We observed a robust increase of approximately 45% relative specific activity (phosphate release/minute/unit protein) of PP2A upon treatment with COG449 alone when compared to the untreated control, and about 20% activation compared with FTY720 (FIG. 4B)."}, "[3]": {"tested_on": "mTOR", "test": "mTOR phosphorylation in MB231 cells, Western blot", "format": "cell-based", "conditions": "markedly reduced at ≧100 nM", "description": "FIG. 13A: Western blot and densitometry analysis of phosphorylated m-TOR levels in MDA-MB-231 cells treated with EGF and the indicated concentrations of COG445 in the presence or absence of okadaic acid. FIG. 13B: Western blot analysis of phosphorylated GSK-3β levels in MDA-MB-231 cells treated with EGF and the indicated concentrations of COG445 in the presence or absence of okadaic acid.\nAkt exerts its proliferative signal by phosphorylating protein substrates such as mTOR and GSK-3β. To examine the effects of COG445 on downstream Akt signaling in MB231 cells, mTOR activation and GSK-3β inhibition was measured by western blot analysis. […] The reduction in mTOR and GSK-3β phosphorylation was eliminated in the presence of okadaic acid, further evidence that PP2A mediates the effects of COG445 on Akt signaling."}, "[4]": {"tested_on": "PDK1", "test": "PDK1 activation, Western blot", "format": "cell-based", "conditions": "U87 and MB231", "description": "(§1) FIGS. 10A-10B. […] FIG. 10A: Western blot analysis of U87 glioblastoma cells exposed to the indicated concentrations of COG445 peptide in the presence of EGF. The blot is probed with antibodies for the activated EGF receptor (P-EGFR), total EGF receptor, activated PDK1 (P-PDK1), and total PDK1. FIG. 10B: Western blot and densitometry analysis of Akt activation induced by EGF in U87 cells in the presence of increasing concentrations of COG445.\n(§2) Akt signaling is often dysregulated in cancers thereby promoting cellular survival and proliferation. […] Given the effect of ApoE peptides on other inflammatory pathologies, we investigated the effect of an ApoE peptide dimer on Akt signaling in breast and brain cancer cells. A disulfide dimer of COG112 (SEQ ID NO: 1) was prepared as described in Example 1 (COG445). Adherent breast cancer cells, MDA-MB-231 (MB231), or glioblastoma cells, U87-MG (U87), were serum starved overnight and then exposed to COG445 for 2 hours before stimulating with epidermal growth factor (EGF) for 5 minutes. […] EGFR activation results in the activation of the PI3K/Akt signaling pathway, which is mediated by PDK1 activation."}, "[5]": {"tested_on": "Akt", "test": "EGF-induced Akt activation, Western blot", "format": "cell-based", "description": "as §1, §2"}, "[6]": {"test": "Cytotoxicity on normal B-cells from volunteers", "format": "cell-based, human", "conditions": "human, normal B-cells from volunteers", "protocol": "(§3) Blood from CLL patients was collected and CD5+/CD19+ CLL cells were isolated using the RosetteSep™ Human B-Cell Enrichment Cocktail, according to the manufacturer's instructions, and treated with COG compounds. Compounds were applied to B-CLL cells (2.5×10^5 cells/well in a 96 well plate), after which the cells were treated for 72 hours.\n(§4) Normal B-cells from volunteers and B-CLL cells from patients are isolated using the RosetteSep™ Human B Cell Enrichment Cocktail according to the manufacturer's instructions. This method depletes whole blood of T cells, monocytes, and NK cells using a proprietary antibody cocktail that cross-links unwanted cells in human whole blood to multiple red blood cells (RBCs) forming immunorosettes. This increases the density of the unwanted (rosetted) cells, such that they pellet along with the free RBCs when centrifuged over a buoyant density medium such as Ficoll-Paque®. This leaves the highly enriched B-cell or B-CLL cells at the interface between Ficoll and the plasma. The antibodies in the cocktail contain anti-CD14, anti-CD2 and anti-CD16 antibodies to remove T cells, monocytes, and NK cells, respectively. The purity of these B-cell and B-CLL preparations is then determined by flow cytometry. Preparations typically average less than 2% CD3+ T-cells and less than 0.5% CD14+ monocytes. In the case of B-CLL cell isolation, we routinely obtain preparations that contain less than 1.5% normal CD19+/CD5− B-cells using this method."}, "[7]": {"tested_on": "normal B-cells", "test": "Cytotoxicity on normal B-cells from volunteers", "format": "cell-based, human", "protocol": "as §3, §4"}, "[8]": {"biological_target": "recombinant human PP2A catalytic subunit (Homo sapiens, UniProt P67775)", "sequence (P67775 whole entry)": "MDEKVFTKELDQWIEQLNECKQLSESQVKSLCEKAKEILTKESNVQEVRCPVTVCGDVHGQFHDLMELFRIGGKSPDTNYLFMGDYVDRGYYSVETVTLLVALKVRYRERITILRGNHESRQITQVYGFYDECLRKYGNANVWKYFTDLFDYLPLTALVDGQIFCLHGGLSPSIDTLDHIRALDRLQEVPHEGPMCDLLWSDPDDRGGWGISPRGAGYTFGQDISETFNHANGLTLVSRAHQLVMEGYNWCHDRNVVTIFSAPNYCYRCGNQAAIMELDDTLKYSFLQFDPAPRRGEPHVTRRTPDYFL", "test": "Recombinant human PP2A catalytic subunit activity", "format": "biochemical", "conditions": "up to 10 μM", "description": "To examine the mechanism of COG445 on PP2A activity, recombinant human PP2A catalytic subunit was incubated with COG445 and activity was measured. […] To further explore the changes of PP2A protein complexes, co-immunoprecipitation experiments were performed on MB231 cells."}, "[9]": {"tested_on": "EGFR", "test": "EGF-induced EGFR activation, Western blot", "format": "cell-based", "conditions": "up to 1 μM, U87 and MB231, EGF", "description": "as §1, §2"}, "[10]": {"tested_on": "c-myc", "test": "Total c-myc protein levels, Western blot", "format": "cell-based", "description": "FIG. 12A: Total PP2A activity immunoprecipitated from MDA-MB-231 cells treated with EGF and increasing concentrations of COG445. FIG. 12B: Western blot and densitometry analysis of total c-myc protein levels in U87 cells treated with the indicated concentrations of COG445 in the presence or absence of okadaic acid. FIG. 12C: Immunoprecipitation of the catalytic subunit of PP2A from MDA-MB-231 cells exposed to EGF and two different concentrations of COG445. The blot is probed for I2PP2A (SET) and PP2A catalytic subunit.\nTo further characterize the effect of COG445 on PP2A activity, MB231 cells were treated as above and the phosphatase activity of immunoprecipitated PP2A was measured. EGF stimulation caused a significant decrease in total PP2A activity compared to untreated serum starved cells (FIG. 12A). […] To further explore the extent of PP2A activation in response to COG445, total c-myc protein levels were determined by western blot analysis. C-myc is a substrate for PP2A and upon dephosphorylation is metabolized by ubiquitination and proteasomal degradation. In both U87 (FIG. 12B) and MB231 (data not shown) cell lines, c-myc levels decreased after a two-hour exposure to COG445 in a dose-dependent manner, reaching statistical significance at 1000 nM."}}, "note": "Positions of bridges follow the written chain, without caps; N, C: chain ends. Chains are numbered I, II in the order given."}
{"substance": "I: Ac-RQIKIWFQNRRMKWKKCLRVRLASHLRKLRKRLL-NH2 / II: Ac-RQIKIWFQNRRMKWKKCLRVRLASHLRKLRKRLL-NH2 (disulfide I:17-II:17) [COG445, COG112-C-C-COG112]", "values": [{"measurement": "apoptosis", "setting": "[1]", "result": "no indication of apoptosis"}, {"measurement": "phosphate release due to activation of PP2A relative to untreated control cells", "setting": "[2]", "result": "increased phosphate release"}, {"measurement": "mTOR phosphorylation upon EGF stimulation", "setting": "[3]", "result": "dose-dependent decrease"}, {"measurement": "PDK1 activation (serine 241 phosphorylation)", "setting": "[4]", "result": "did not alter"}, {"measurement": "Akt serine 473 phosphorylation", "setting": "[5]; 100 nM, both cell lines, significant at 1 μM", "result": "decreased"}, {"measurement": "Akt activation", "setting": "[5]; MB231 and U87 cells, EGF", "result": "dose-dependent decrease"}, {"measurement": "Akt phosphorylation in the presence of okadaic acid", "setting": "[5]; MB231 cells", "result": "did not inhibit"}, {"measurement": "EC50 at 72 h", "setting": "[6]", "result": "> 10", "unit": "µM"}, {"measurement": "EC50 normal B-cells relative to CLL cells", "setting": "[7]", "result": "~200", "unit": "fold"}, {"measurement": "rate of phosphatase activity", "setting": "[8]", "result": "did not have any effect"}, {"measurement": "EGFR activation (tyrosine 1045 phosphorylation)", "setting": "[9]", "result": "did not alter"}, {"measurement": "c-myc levels in the presence of OA", "setting": "[10]", "result": "unaltered"}, {"measurement": "c-myc levels", "setting": "[10]; two-hour exposure, U87 and MB231, significant at 1000 nM", "result": "decreased"}]}
